In the supplement of paper PMC10307832 one finds relative viability data, which are given here for six cell lines.

Experiment in all cases: relative viability (nuclei count vs DMSO), 5 days (fraction); higher = more cells survive
Compound in the assay “Tivantinib + Palbociclib”: O=C1NC(=O)[C@@H](c2cn3c4c(cccc24)CCC3)[C@@H]1c1c[nH]c2ccccc12 [Tivantinib] + CC(=O)c1c(C)c2cnc(Nc3ccc(N4CCNCC4)cn3)nc2n(C2CCCC2)c1=O [Palbociclib] (partner 0.5 µM)
The procedure, abridged:
(§1)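 Relative viability was taken as the ratio of nuclei in treated wells to nuclei in vehicle wells. Lung cancer cell lines in 1536-well plates received compounds by pin tool one day after seeding, either one drug alone or a fixed anchor-drug dose plus five library-drug doses (not always all listed) in √10 steps. Nuclei were counted on 4× images after 5 days of treatment, and values are medians of duplicate plates.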

Compound in the assay “Tivantinib + Olaparib”: O=C1NC(=O)[C@@H](c2cn3c4c(cccc24)CCC3)[C@@H]1c1c[nH]c2ccccc12 [Tivantinib] + O=C(c1cc(Cc2n[nH]c(=O)c3ccccc23)ccc1F)N1CCN(C(=O)C2CC2)CC1 [Olaparib] (partner 8 µM)
An outline of the steps: as §1

Compound in the assay “Tivantinib + Pictilisib”: O=C1NC(=O)[C@@H](c2cn3c4c(cccc24)CCC3)[C@@H]1c1c[nH]c2ccccc12 [Tivantinib] + CS(=O)(=O)N1CCN(Cc2cc3nc(-c4cccc5[nH]ncc45)nc(N4CCOCC4)c3s2)CC1 [Pictilisib] (partner 1 µM)
An outline of the steps:
as §1

Compound in the assay “Crenolanib + Palbociclib”: CC1(COc2ccc3c(c2)ncn3-c2ccc3cccc(N4CCC(N)CC4)c3n2)COC1 [Crenolanib] + CC(=O)c1c(C)c2cnc(Nc3ccc(N4CCNCC4)cn3)nc2n(C2CCCC2)c1=O [Palbociclib] (partner 0.5 µM)
An outline of the steps:
as §1

As for NCI-H1734, the relative viability came out at 0.384 with Tivantinib + Palbociclib (first compound 0.01 µM); 0.319 in the assay with Tivantinib + Palbociclib (first compound 0.03162 µM); 0.336 in the assay with Tivantinib + Palbociclib (first compound 0.1 µM); 0.366 with Tivantinib + Palbociclib (first compound 0.3162 µM); 0.61 with Tivantinib + Olaparib (first compound 0.01 µM); 0.615 with Tivantinib + Olaparib (first compound 0.03162 µM). The relative viability was found to be 0.577 with Tivantinib + Olaparib (first compound 0.1 µM); 0.495 with Tivantinib + Olaparib (first compound 0.3162 µM); 0.479 with Tivantinib + Pictilisib (first compound 0.01 µM); 0.395 with Tivantinib + Pictilisib (first compound 0.03162 µM); 0.416 with Tivantinib + Pictilisib (first compound 0.1 µM); 0.469 in the assay with Tivantinib + Pictilisib (first compound 0.3162 µM). Moreover, the relative viability with Crenolanib + Palbociclib (first compound 0.01 µM) came out at 0.515; with Crenolanib + Palbociclib (first compound 0.03162 µM), 0.369; with Crenolanib + Palbociclib (first compound 0.1 µM), 0.372; with Crenolanib + Palbociclib (first compound 0.3162 µM), 0.338; with Crenolanib + Palbociclib (first compound 1 µM) it was 0.376.

Turning to NCI-H1755, the relative viability with Tivantinib + Palbociclib (first compound 0.01 µM) is 0.437; with Tivantinib + Palbociclib (first compound 0.03162 µM) it was 0.44; with Tivantinib + Palbociclib (first compound 0.1 µM) it was 0.432; in the assay with Tivantinib + Palbociclib (first compound 0.3162 µM), 0.459; with Tivantinib + Olaparib (first compound 0.01 µM) it was 0.9; with Tivantinib + Olaparib (first compound 0.03162 µM), 0.85. In addition, the relative viability in the assay with Tivantinib + Olaparib (first compound 0.1 µM) amounted to 0.848; with Tivantinib + Olaparib (first compound 0.3162 µM), 0.898; with Tivantinib + Pictilisib (first compound 0.01 µM), 0.462; with Tivantinib + Pictilisib (first compound 0.03162 µM), 0.417; in the assay with Tivantinib + Pictilisib (first compound 0.1 µM), 0.39; with Tivantinib + Pictilisib (first compound 0.3162 µM) it was 0.355. For the same cell line, the relative viability amounted to 0.466 in the assay with Crenolanib + Palbociclib (first compound 0.01 µM); 0.443 with Crenolanib + Palbociclib (first compound 0.03162 µM); 0.46 in the assay with Crenolanib + Palbociclib (first compound 0.1 µM); 0.454 in the assay with Crenolanib + Palbociclib (first compound 0.3162 µM); 0.473 in the assay with Crenolanib + Palbociclib (first compound 1 µM).

NCI-H1792: the relative viability was found to be 0.685 with Tivantinib + Palbociclib (first compound 0.01 µM); 0.62 with Tivantinib + Palbociclib (first compound 0.03162 µM); 0.627 in the assay with Tivantinib + Palbociclib (first compound 0.1 µM); 0.618 with Tivantinib + Palbociclib (first compound 0.3162 µM); 0.406 in the assay with Tivantinib + Olaparib (first compound 0.01 µM); 0.406 with Tivantinib + Olaparib (first compound 0.1 µM). Further, the relative viability came out at 0.3 with Tivantinib + Olaparib (first compound 0.3162 µM); 0.343 in the assay with Tivantinib + Pictilisib (first compound 0.01 µM); 0.235 with Tivantinib + Pictilisib (first compound 0.03162 µM); 0.288 with Tivantinib + Pictilisib (first compound 0.1 µM); 0.186 with Tivantinib + Pictilisib (first compound 0.3162 µM); 0.68 with Crenolanib + Palbociclib (first compound 0.01 µM). The relative viability in the assay with Crenolanib + Palbociclib (first compound 0.03162 µM) turned out to be 0.683; with Crenolanib + Palbociclib (first compound 0.1 µM), 0.648; with Crenolanib + Palbociclib (first compound 0.3162 µM), 0.687; with Crenolanib + Palbociclib (first compound 1 µM) it was 0.677.

For NCI-H1793, the relative viability turned out to be 0.334 with Tivantinib + Palbociclib (first compound 0.01 µM); 0.237 with Tivantinib + Palbociclib (first compound 0.03162 µM); 0.325 with Tivantinib + Palbociclib (first compound 0.1 µM); 0.241 in the assay with Tivantinib + Palbociclib (first compound 0.3162 µM); 0.982 in the assay with Tivantinib + Olaparib (first compound 0.01 µM); 0.761 with Tivantinib + Olaparib (first compound 0.03162 µM). In addition, the relative viability with Tivantinib + Olaparib (first compound 0.1 µM) is 0.819; with Tivantinib + Olaparib (first compound 0.3162 µM), 0.45; in the assay with Tivantinib + Pictilisib (first compound 0.01 µM) it was 0.353; in the assay with Tivantinib + Pictilisib (first compound 0.03162 µM), 0.42; with Tivantinib + Pictilisib (first compound 0.1 µM) it was 0.437; with Crenolanib + Palbociclib (first compound 0.01 µM), 0.295. Further, the relative viability was 0.321 in the assay with Crenolanib + Palbociclib (first compound 0.03162 µM), 0.302 with Crenolanib + Palbociclib (first compound 0.1 µM), 0.36 in the assay with Crenolanib + Palbociclib (first compound 0.3162 µM) and 0.43 in the assay with Crenolanib + Palbociclib (first compound 1 µM).

As for NCI-H1915, the relative viability with Tivantinib + Palbociclib (first compound 0.01 µM) was determined as 0.527; with Tivantinib + Palbociclib (first compound 0.03162 µM) it was 0.446; in the assay with Tivantinib + Palbociclib (first compound 0.1 µM), 0.544; with Tivantinib + Palbociclib (first compound 0.3162 µM), 0.58; with Tivantinib + Olaparib (first compound 0.01 µM) it was 0.262; with Tivantinib + Olaparib (first compound 0.03162 µM), 0.227. Further, the relative viability worked out at 0.244 with Tivantinib + Olaparib (first compound 0.1 µM); 0.239 in the assay with Tivantinib + Olaparib (first compound 0.3162 µM); 0.902 with Tivantinib + Pictilisib (first compound 0.01 µM); 0.92 with Tivantinib + Pictilisib (first compound 0.03162 µM); 0.93 with Tivantinib + Pictilisib (first compound 0.1 µM); 1.04 with Tivantinib + Pictilisib (first compound 0.3162 µM). In addition, the relative viability with Crenolanib + Palbociclib (first compound 0.01 µM) is 0.513; with Crenolanib + Palbociclib (first compound 0.03162 µM), 0.57; with Crenolanib + Palbociclib (first compound 0.1 µM) it was 0.507; with Crenolanib + Palbociclib (first compound 0.3162 µM), 0.522; with Crenolanib + Palbociclib (first compound 1 µM) it was 0.389.

NCI-H1944: the relative viability with Tivantinib + Palbociclib (first compound 0.01 µM) is 0.366; with Tivantinib + Palbociclib (first compound 0.03162 µM), 0.327; with Tivantinib + Palbociclib (first compound 0.1 µM), 0.324; with Tivantinib + Palbociclib (first compound 0.3162 µM), 0.297; with Tivantinib + Olaparib (first compound 0.01 µM), 0.368; with Tivantinib + Olaparib (first compound 0.03162 µM), 0.424. Also, the relative viability amounted to 0.39 in the assay with Tivantinib + Olaparib (first compound 0.1 µM); 0.374 with Tivantinib + Olaparib (first compound 0.3162 µM); 0.308 with Tivantinib + Pictilisib (first compound 0.01 µM); 0.294 with Tivantinib + Pictilisib (first compound 0.03162 µM); 0.332 in the assay with Tivantinib + Pictilisib (first compound 0.1 µM); 0.369 in the assay with Tivantinib + Pictilisib (first compound 0.3162 µM). Also, the relative viability is 0.356 with Crenolanib + Palbociclib (first compound 0.01 µM); 0.315 in the assay with Crenolanib + Palbociclib (first compound 0.03162 µM); 0.335 in the assay with Crenolanib + Palbociclib (first compound 0.1 µM); 0.324 with Crenolanib + Palbociclib (first compound 0.3162 µM); 0.3 with Crenolanib + Palbociclib (first compound 1 µM).
